Assay results reported in US8822517B2, “Arylosulfonamides for the treatment of CNS diseases” (Adamed SP. Z O.O., priority 2010, dated 2014).
Like-named read-outs stand apart in the source and are kept apart here.

What was measured:
[1] = target: T1, serotonine transporter (SERT) receptor (Homo sapiens, UniProt P31645); test: Binding assay SERT (h), [3H]imipramine, CHO cells; settings: read-out: SERT [%]
T1 construct: expressed in transfected cells; host or cells: CHO cells
Summary of the method: (§1)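 Single-concentration test (1×10^−6 M). Total and non-specific binding were counted by scintillation, and their difference defines specific binding.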

sigma σ receptor = test: Binding assay σ (non-selective), [3H]DTG, rat cerebral cortex; settings: percent inhibition of control specific binding; compounds tested at 1×10^−6 M
Summary of the method: as §1

adrenergic α1 receptor = test: Binding assay α1 (non-selective), [3H]prazosin, rat cerebral cortex; settings: percent inhibition of control specific binding; compounds tested at 1×10^−6 M
Summary of the method: as §1

muscarinic M3 receptor = target: T2, muscarinic M3 receptor (Homo sapiens, UniProt P20309); test: Binding assay M3 (h), [3H]4-DAMP, CHO cells; settings: read-out: M3 [%]
T2 construct: expressed in transfected cells; host or cells: CHO cells
Summary of the method: as §1

[2] = target: T3, serotoninergic 5-HT6 receptor (Homo sapiens, UniProt P50406); test: Cellular functional assay, serotoninergic 5-HT6 receptor (agonism/antagonism); type: cell-based; settings: for inhibition at 1 µM: read-out: 5-HT6-antag. [%]
Protocol: (§2) The compounds were tested at the concentration of 1×10^−6M.
(§3) In the Tables ag refers to agonism, and antag to antagonism).

[3] = target: T4, serotoninergic 5-HT7 receptor (Homo sapiens, UniProt P34969); test: Cellular functional assay, serotoninergic 5-HT7 receptor (agonism/antagonism); type: cell-based; settings: for activation at 1 µM: read-out: 5-HT7-ag [%]; for inhibition at 1 µM: read-out: 5-HT7-antag. [%]
Protocol: as §2, §3

dopaminergic D3 receptor [4] = target: T5, dopaminergic D3 receptor (Homo sapiens, UniProt P35462); test: Binding assay D3 (h), [3H]methyl-spiperone, CHO cells; set-up: expressed in transfected cells; host or cells: CHO cells; settings: read-out: D3 [%]
Summary of the method: as §1

[5] = target: T3, serotoninergic 5-HT6 receptor; test: Binding assay 5-HT6 (h), [3H]LSD, CHO cells; set-up: expressed in transfected cells; host or cells: CHO cells; settings: read-out: 5-HT6
Summary of the method: as §1

[6] = target: T4, serotoninergic 5-HT7 receptor; test: Binding assay 5-HT7 (h), [3H]LSD, CHO cells; set-up: expressed in transfected cells; host or cells: CHO cells; settings: read-out: 5-HT7
Summary of the method: as §1

adrenergic α2C receptor [7] = target: T6, adrenergic α2C receptor (Homo sapiens, UniProt P18825); test: Binding assay α2C (h), [3H]RX 821002, CHO cells; set-up: expressed in transfected cells; host or cells: CHO cells; settings: read-out: α2C [%]
T6 sequence (P18825 1-462): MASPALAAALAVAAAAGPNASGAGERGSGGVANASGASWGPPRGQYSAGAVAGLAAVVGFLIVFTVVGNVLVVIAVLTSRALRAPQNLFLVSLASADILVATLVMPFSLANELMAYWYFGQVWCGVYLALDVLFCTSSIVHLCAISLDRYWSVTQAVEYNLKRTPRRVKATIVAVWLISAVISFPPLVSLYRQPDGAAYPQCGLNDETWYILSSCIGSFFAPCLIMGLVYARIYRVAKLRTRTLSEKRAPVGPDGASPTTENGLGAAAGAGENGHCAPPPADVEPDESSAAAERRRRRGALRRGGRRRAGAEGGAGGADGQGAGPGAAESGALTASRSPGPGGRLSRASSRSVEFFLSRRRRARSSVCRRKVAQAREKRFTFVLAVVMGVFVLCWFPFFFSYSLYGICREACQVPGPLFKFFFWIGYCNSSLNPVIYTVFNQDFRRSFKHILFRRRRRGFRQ
Summary of the method: as §1

dopaminergic D2 receptor [8] = target: T7, dopaminergic D2 receptor (Homo sapiens, UniProt P14416); test: Binding assay D2S (h), [3H]methyl-spiperone, HEK-293 cells; set-up: expressed in transfected cells; host or cells: HEK-293 cells; settings: read-out: D2 [%]
Summary of the method: as §1
Target sequence in this assay (P14416 1-414 isoform P14416-2): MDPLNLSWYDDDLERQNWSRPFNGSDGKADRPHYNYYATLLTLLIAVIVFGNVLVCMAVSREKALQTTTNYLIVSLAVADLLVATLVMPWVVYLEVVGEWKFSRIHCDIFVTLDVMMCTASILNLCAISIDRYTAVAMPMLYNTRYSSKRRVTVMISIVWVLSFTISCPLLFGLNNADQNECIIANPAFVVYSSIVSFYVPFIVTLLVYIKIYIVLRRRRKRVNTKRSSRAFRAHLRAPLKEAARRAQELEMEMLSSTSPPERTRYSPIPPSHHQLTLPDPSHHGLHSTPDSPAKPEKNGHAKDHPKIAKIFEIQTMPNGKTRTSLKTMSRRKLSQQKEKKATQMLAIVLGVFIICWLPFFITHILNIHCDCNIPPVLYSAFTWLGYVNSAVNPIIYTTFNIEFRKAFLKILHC

[9] = target: histaminergic H1 receptor (Homo sapiens, UniProt P35367); test: Binding assay H1 (h), [3H]pyrilamine, HEK-293 cells; set-up: expressed in transfected cells; host or cells: HEK-293 cells; settings: read-out: H1 [%]
Summary of the method: as §1

dopaminergic D2 receptor [10] = target: T7, dopaminergic D2 receptor; test: Cellular functional assay, dopaminergic D2 receptor (agonism/antagonism); type: cell-based; settings: HEK293; for activation at 1 µM: agonist effect, percent of control specific agonist response (3 μM dopamine for control), 1×10^−6 M, D2S (h), HEK-293 cells, read-out: D2-ag [%]; for inhibition at 1 µM: read-out: D2-antag. [%]
Protocol: as §2, §3
Target sequence in this assay (P14416 whole entry): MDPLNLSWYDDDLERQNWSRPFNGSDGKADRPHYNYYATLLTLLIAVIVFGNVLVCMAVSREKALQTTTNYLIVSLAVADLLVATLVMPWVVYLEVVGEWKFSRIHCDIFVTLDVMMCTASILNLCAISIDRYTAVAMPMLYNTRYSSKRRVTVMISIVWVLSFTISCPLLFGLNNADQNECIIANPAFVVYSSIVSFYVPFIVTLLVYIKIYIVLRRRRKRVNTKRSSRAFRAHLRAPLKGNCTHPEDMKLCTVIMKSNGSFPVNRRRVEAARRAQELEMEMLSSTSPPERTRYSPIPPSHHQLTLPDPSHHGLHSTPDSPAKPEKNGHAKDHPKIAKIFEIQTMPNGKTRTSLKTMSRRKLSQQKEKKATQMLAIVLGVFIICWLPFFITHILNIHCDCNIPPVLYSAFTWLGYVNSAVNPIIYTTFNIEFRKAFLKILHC

adrenergic α2C receptor [11] = target: T6, adrenergic α2C receptor; test: Cellular functional assay, adrenergic α2C receptor (agonism/antagonism); type: cell-based; settings: for activation at 1 µM: agonist effect, percent of control specific agonist response, compounds tested at 1×10^−6M, read-out: α2C −ag [%]; for inhibition at 1 µM: read-out: α2C −antag. [%]
Protocol: as §2, §3

dopaminergic D3 receptor [12] = target: T5, dopaminergic D3 receptor; test: Cellular functional assay, dopaminergic D3 receptor (agonism/antagonism); type: cell-based; settings: for inhibition at 1 µM: CHO, read-out: D3-antag. [%]; for activation at 1 µM: agonist effect, percent of control specific agonist response (300 nM dopamine for control), 1×10^−6 M, D3 (h), CHO cells, read-out: D3-ag [%]
Protocol: as §2, §3

[13] = agonist effect, percent of control specific agonist response, compounds tested at 1×10^−6M

T4 sequence (P34969 whole entry): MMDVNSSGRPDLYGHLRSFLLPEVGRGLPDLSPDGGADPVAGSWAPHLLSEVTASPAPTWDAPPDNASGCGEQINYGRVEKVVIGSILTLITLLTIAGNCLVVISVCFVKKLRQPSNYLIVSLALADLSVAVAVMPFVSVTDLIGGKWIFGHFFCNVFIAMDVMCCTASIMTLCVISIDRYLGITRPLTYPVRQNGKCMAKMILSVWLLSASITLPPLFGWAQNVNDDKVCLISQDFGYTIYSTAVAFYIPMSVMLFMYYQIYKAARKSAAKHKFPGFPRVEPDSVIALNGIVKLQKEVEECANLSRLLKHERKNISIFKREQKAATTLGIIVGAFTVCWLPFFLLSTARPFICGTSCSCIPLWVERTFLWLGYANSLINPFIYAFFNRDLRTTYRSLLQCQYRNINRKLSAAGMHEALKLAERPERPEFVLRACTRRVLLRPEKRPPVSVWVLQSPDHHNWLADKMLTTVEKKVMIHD
T3 sequence (P50406 whole entry): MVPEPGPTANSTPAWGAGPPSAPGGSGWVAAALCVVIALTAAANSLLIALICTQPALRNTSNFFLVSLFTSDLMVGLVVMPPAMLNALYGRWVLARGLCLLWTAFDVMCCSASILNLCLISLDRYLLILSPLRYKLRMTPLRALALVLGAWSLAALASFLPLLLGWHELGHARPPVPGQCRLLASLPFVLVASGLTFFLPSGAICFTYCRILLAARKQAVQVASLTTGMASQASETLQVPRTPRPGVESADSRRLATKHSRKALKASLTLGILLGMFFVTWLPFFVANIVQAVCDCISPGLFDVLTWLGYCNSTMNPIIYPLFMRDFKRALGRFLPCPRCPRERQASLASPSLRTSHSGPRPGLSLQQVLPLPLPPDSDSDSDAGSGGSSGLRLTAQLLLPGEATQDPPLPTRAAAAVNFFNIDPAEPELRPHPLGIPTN
T1 sequence (P31645 whole entry): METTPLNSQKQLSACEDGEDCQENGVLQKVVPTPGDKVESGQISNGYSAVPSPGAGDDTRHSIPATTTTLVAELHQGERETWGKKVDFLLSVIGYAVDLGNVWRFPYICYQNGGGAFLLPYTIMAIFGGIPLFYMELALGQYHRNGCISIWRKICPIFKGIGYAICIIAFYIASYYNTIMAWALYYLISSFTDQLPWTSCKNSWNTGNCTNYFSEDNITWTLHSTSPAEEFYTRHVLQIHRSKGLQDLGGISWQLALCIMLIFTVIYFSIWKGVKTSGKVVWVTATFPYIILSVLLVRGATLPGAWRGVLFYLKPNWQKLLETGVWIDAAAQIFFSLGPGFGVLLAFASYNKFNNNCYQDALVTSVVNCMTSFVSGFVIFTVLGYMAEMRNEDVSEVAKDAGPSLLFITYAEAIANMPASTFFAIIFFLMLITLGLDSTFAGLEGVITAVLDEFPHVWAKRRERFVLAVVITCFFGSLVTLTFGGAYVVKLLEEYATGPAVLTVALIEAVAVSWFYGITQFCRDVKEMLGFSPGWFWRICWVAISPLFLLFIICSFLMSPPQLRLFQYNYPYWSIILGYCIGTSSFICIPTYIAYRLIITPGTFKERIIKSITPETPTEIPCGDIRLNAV
T2 sequence (P20309 whole entry): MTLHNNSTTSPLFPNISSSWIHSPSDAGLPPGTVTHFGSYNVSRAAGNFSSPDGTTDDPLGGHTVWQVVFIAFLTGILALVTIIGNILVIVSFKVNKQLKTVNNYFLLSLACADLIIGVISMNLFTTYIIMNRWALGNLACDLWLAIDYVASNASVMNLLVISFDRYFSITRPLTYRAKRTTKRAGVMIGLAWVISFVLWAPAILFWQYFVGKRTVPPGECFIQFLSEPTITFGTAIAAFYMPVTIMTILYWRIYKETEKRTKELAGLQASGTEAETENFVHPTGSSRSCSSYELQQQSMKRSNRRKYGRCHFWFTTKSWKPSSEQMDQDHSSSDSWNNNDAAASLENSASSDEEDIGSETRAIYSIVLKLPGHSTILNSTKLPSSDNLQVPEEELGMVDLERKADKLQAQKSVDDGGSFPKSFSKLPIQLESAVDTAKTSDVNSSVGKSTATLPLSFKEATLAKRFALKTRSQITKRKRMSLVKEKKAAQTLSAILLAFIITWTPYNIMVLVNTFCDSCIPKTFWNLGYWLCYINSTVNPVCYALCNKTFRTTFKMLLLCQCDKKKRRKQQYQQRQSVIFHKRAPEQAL
Chain of histaminergic H1 receptor (P35367 whole entry): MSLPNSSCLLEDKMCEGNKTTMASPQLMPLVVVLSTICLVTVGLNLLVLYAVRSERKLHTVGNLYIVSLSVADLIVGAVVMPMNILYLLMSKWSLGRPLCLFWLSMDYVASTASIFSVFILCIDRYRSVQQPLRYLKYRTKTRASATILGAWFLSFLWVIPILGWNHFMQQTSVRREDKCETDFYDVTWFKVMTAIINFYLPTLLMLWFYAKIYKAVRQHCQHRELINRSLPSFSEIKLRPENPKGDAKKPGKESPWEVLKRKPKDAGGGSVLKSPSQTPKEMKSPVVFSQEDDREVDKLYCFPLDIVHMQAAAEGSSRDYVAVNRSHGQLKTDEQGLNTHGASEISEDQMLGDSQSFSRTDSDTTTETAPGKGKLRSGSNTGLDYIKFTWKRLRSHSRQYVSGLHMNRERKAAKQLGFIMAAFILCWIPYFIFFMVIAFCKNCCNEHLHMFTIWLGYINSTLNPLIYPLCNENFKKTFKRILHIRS
T5 sequence (P35462 whole entry): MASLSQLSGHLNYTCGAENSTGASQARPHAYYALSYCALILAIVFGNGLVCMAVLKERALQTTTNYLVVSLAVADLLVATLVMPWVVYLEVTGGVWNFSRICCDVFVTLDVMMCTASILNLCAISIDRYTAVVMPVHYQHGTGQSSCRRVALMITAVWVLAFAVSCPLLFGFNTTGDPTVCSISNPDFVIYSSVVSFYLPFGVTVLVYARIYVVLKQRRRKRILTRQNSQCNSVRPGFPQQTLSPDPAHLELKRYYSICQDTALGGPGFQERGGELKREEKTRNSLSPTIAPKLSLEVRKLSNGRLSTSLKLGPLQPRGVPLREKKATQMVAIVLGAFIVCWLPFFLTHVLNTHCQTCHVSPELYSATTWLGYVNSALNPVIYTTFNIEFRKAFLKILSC

| Compound | inhibition at 1 µM [1] [%] | σ [%] (sigma σ receptor) | α1 [%] (adrenergic α1 receptor) | inhibition at 1 µM (muscarinic M3 receptor) [%] | inhibition at 1 µM [3] [%] | inhibition at 1 µM (dopaminergic D3 receptor [4]) [%] | inhibition at 1 µM [5] [%] | inhibition at 1 µM [6] [%] | inhibition at 1 µM (adrenergic α2C receptor [7]) [%] | inhibition at 1 µM (dopaminergic D2 receptor [8]) [%] | inhibition at 1 µM [9] [%] | activation at 1 µM (dopaminergic D2 receptor [10]) [%] | inhibition at 1 µM (dopaminergic D2 receptor [10]) [%] | activation at 1 µM [3, 13] [%] | activation at 1 µM (adrenergic α2C receptor [11]) [%] | inhibition at 1 µM (adrenergic α2C receptor [11]) [%] | inhibition at 1 µM (dopaminergic D3 receptor [12]) [%] | activation at 1 µM (dopaminergic D3 receptor [12]) [%] | also measured |
| --- | --- | --- | --- | --- | --- | --- | --- | --- | --- | --- | --- | --- | --- | --- | --- | --- | --- | --- | --- |
| Cc1cccc(S(=O)(=O)NCCCCN2CCN(c3nsc4ccccc34)CC2)c1 [Compound 3, N-(4-(4-(1,2-Benzothiazol-3-yl)piperazin-1-yl)butyl)-3-methylbenzenesulphonamide] | 57 | 66 | 100 | 13 | 93 | 98 | 83 | 97 | 99 | 96 | 94 |  |  |  |  |  |  |  | inhibition at 1 µM [2]: 22%; activation at 1 µM [3]: -2% |
| O=S(=O)(NCCCCN1CCN(c2cccc3[nH]ccc23)CC1)c1ccccc1 [Compound 27, N-{4-[4-(1H-Indol-4-yl)piperazin-1-yl]butyl}benzenesulphonamide] | -3 | 78 | 96 | 46 | 8 | 96 | 34 | 92 | 100 | 90 | 27 | 40 | 100 | 5 | 3 | 31 |  |  |  |
| O=S(=O)(NCCCCN1CCN(c2cccc3[nH]ccc23)CC1)c1cccc(F)c1 [Compound 28, 3-Fluoro-N-{4-[4-(1H-indol-4-yl)piperazin-1-yl]butyl}benzenesulphonamide] | 53 | 84 | 92 | 50 | 23 | 99 | 98 | 92 | 92 | 98 | 57 | 49 | 105 | 4 | 4 | 27 | -2 | 59 | activation at 1 µM ([2]; agonist effect, percent of control specific agonist response, compounds tested at 1×10^−6M, read-out: 5-HT6-ag [%]): 0%; inhibition at 1 µM [2]: 53% |
| O=S(=O)(NCCCCN1CCN(c2cccc3[nH]ccc23)CC1)c1cnc2ccccn12 [Compound 30, N-{4-[4-(1H-Indol-4-yl)piperazin-1-yl]butyl}-imidazo[1,2-a]pyridine-3-sulphonamide] | 14 | 42 | 96 | 66 | 73 | 98 | 5 | 96 | 99 | 98 | 40 | 43 | 97 | 5 | 18 | 35 | 35 | 52 |  |
| O=S(=O)(NCCCCN1CCN(c2cccc3[nH]ccc23)CC1)c1cccc(Cl)c1 [Compound 113, N-[4-[4-(1H-Indol-4-yl)piperazin-1-yl]butyl]-3-chlorobenzenesulphonamide] | 28 | 92 | 99 | 29 | 45 | 99 | 74 | 97 | 99 | 98 | 60 | 42 | 94 | 9 | 13 | 53 | 30 | 39 |  |
| O=S(=O)(NCCCCN1CCN(c2cccc3[nH]ccc23)CC1)c1ccc(F)cc1 [Compound 359, 4-Fluoro-N-[4-[4-(1H-indol-4-yl)piperazin-1-yl]butyl]benzenesulphonamide] | 33 | 85 | 97 | 63 | 43 | 100 | 42 | 95 | 99 | 96 | 60 | 39 | 96 | 8 | 13 | 38 | 79 | 25 |  |
| O=c1[nH]c2cccc(N3CCN(CCCNS(=O)(=O)c4cccc5ccccc45)CC3)c2[nH]1 [Compound 423, N-[3-[4-(2-oxo-1,3-dihydrobenzimidazol-4-yl)piperazin-1-yl]propyl]naphthalene-1-sulphonamide] | 25 | 9 | 91 | -1 |  | 98 | 16 | 88 | 69 | 97 | 16 | 41 | 96 |  |  |  | 22 | 70 |  |
| O=c1[nH]c2cccc(N3CCN(CCCNS(=O)(=O)c4ccc5ccccc5c4)CC3)c2[nH]1 [Compound 424, N-[3-[4-(2-oxo-1,3-dihydrobenzimidazol-4-yl)piperazin-1-yl]propyl]naphthalene-2-sulphonamide] | -3 | −3 | 93 | 7 | 43 | 98 | 69 | 95 | 67 | 97 | 28 | 44 | 97 | 18 |  |  | 18 | 70 |  |
